The record followed here is patent publication US9642874B2, “Compositions of selenoorganic compounds and methods of use thereof” (Alltech, Inc., priority 2014, dated 2017).

The test system of one data set is AKT. Description: Western blot of phosphorylated Akt in primary mouse hepatocytes. It counts as cell-based. Conditions: 100 nM insulin 6 hours, or Compounds CDE both doses 24 hours + 6 hours. As to the method:
(§1) The overnight-acclimated hepatocytes were washed twice with PBS (to remove any residual FBS and other additives in the TRL hepatocyte maintenance medium, pretreated with control (water) or selenium Compounds CDE (150 or 300 ppb of each selenium compound) in DMEM/F12 media supplemented with 10% fetal bovine serum (FBS) for 24 hr. These cells were then washed twice with PBS and incubated with the same dose of selenium Compounds CDE (150 or 300 ppb) in the presence or absence of insulin (10 or 100 nM, Sigma), 0.1 mM 8-CPT (Sigma) or 0.5 μM Dex (Sigma) in serum-free and glucose-free DMEM media (Invitrogen) supplemented with 20 mM lactose (Sigma) and 2 mM pyruvate (Sigma) and 15 mM HEPES (Sigma) for another 6 hours. […]
After the above described treatments, primary mouse hepatocytes were rinsed with ice-cold PBS and lysed in the ice-cold RIPA buffer containing complete proteinase and phosphatase inhibitors (Thermo-Fisher Scientific, Waltham, Mass.) on ice for 30 min Cell lysates were collected using a cell scraper and transfer pipette and then centrifuged at 12000×g for 30 min at 4° C. to remove the DNA pellet and obtain the protein extract. Protein levels in the supernatant of these cell lysates were determined using the Pierce Micro-BCA protein assay kit (Thermo Scientific-Piece Biotechnology, Rockford, Ill.) according to the manufacturer's protocol. […]

Data set [1] concerns primary mouse hepatocytes. Description: Toxicological study: LDH level in culture media of primary mouse hepatocytes. In kind it is cell-based. Conditions: Compounds CDE (150, 300 ppb), insulin (10, 100 nM) or both; 24 hours serum-containing + 6 hours. As to the method:
as §1
Similar to the above glucose assay, cell culture media from the above described treatments were collected and centrifuged at 300×g for 5 minutes to remove any potential dislodged hepatocytes and subjected to LDH analysis using a […] (Abcam) according to the manufacturer protocol. In brief, the absorbance at OD450 nm in LDH standards and the culture medium samples after incubation with LDH substrates for every two minutes up to 40 minutes were determined by the Bio-Tek microplate reader. […]

For the substance “insulin: insulin (10 or 100 nM, Sigma) used as comparator and cotreatment”, the “pAktS473 protein level (in words)” value in the data set with AKT is “significant increase”. Moreover, the “LDH levels in the media” value in data set [1] is “did not cause a significant increase of LDH levels”.
